In patent publication US9259450B2, “Use of a fermented soy extract as a prebiotic composition” (MICROBIO CO., LTD., priority 2010, dated 2016):
In brackets after ≈: the same amount, converted by molar mass.

Columns and labels:
L. delbrueckii [1] = assay: microtitre plate-based growth assay, cell number (Table 3); set-up: species or system L. delbrueckii BCRC 14008
Method: (§1) Three Lactobacillus strains, L. rhamnosus BCRC 10940, L. paracasei BCRC 14001, L. delbrueckii BCRC 14008, were purchased from the FIRDI, which were cultured in MRS w/o agar medium (Difco) and stored at 4° C. To activate the bacteria, the cells were inoculated in MRS medium at a concentration of 5% (v/v) and cultured at 37° C. for 24 hours, and then 10^7 cells/ml of each of the three Lactobacillus strains was inoculated in 5 ml of MRS medium with shaking overnight.
(§2) Antimicrobial activity of antibiotics against the three Lactobacillus strains was measured by a microtitre plate-based method. […] 10 μl of activated bacterial cultures was added to each well to achieve a concentration of 10^5 cfu/ml per well, and the plates were incubated at 37° C. for 24 h. The growth of the bacteria was measured by absorbance at 600 nm and the survival percentages were determined. Further, the minimal inhibitory concentration (MIC) was determined as the lowest concentration of the antibiotics allowing no visible growth of the bacteria. Data are the averages of a triplicate experiment.
(§3) On the other hand, the fermented soy extract prepared of the invention as in Example 1 was analyzed for its prebiotic activity to support the growth of beneficial bacteria using the microtitre plate-based method as described above. The fermented soy extract of the invention was added at a concentration of 5% into the wells and the plates were incubated at 37° C. for 48 h. The cell number was counted.

[2] = system: Lactobacillus strains (L. rhamnosus BCRC 10940, L. paracasei BCRC 14001, L. delbrueckii BCRC 14008); assay: antimicrobial activity (MIC), microtitre plate-based method; format: cell-based; conditions: 10^5 cfu/ml, 37° C., 24 h, MRS medium, triplicate; read-out: minimal inhibitory concentration (MIC)
Method: as §1, §2

L. paracasei [3] = assay: simultaneous treatment of antibiotics and fermented soy extract, survival counting; format: cell-based; conditions: FSE 5% where added, 48 h
Method: as §1
(§4) The plates were incubated at 37° C. for 48 h.

L. delbrueckii [4] = assay: as above; format: cell-based; conditions: FSE 5% where added, 48 h
Method: as §1, §4

L. rhamnosus [5] = assay: as above; format: cell-based; conditions: FSE 5% where added, 48 h
Method: as §1, §4

L. rhamnosus [6] = assay: microtitre plate-based growth assay, cell number (Table 3); set-up: species or system L. rhamnosus BCRC 10940
Method: as §1, §2, §3

L. paracasei [7] = assay: as above; set-up: species or system L. paracasei BCRC 14001
Method: as §1, §2, §3

Row | MIC [2] [µg/mL] | SMILES | cell number L. delbrueckii (L. delbrueckii [1]; antibiotic 2 μg) | survival counting L. paracasei (L. paracasei [3]; antibiotic 2 μg/ml) | survival counting L. paracasei (L. paracasei [3]; antibiotic 5 μg/ml) | survival counting L. delbrueckii (L. delbrueckii [4]; antibiotic 2 μg/ml) | survival counting L. delbrueckii (L. delbrueckii [4]; antibiotic 5 μg/ml) | survival counting L. rhamnosus (L. rhamnosus [5]; antibiotic 2 μg/ml) | survival counting L. rhamnosus (L. rhamnosus [5]; antibiotic 5 μg/ml) | cell number L. rhamnosus (L. rhamnosus [6]; antibiotic 2 μg) | cell number L. paracasei (L. paracasei [7]; antibiotic 2 μg) | cell number L. delbrueckii (L. delbrueckii [1]; antibiotic 1 μg) | cell number L. rhamnosus (L. rhamnosus [6]; antibiotic 1 μg) | cell number L. paracasei (L. paracasei [7]; antibiotic 1 μg)
1 | 3.6 (≈ 9.85 µM) | CC1(C)S[C@@H]2[C@H](NC(=O)[C@H](N)c3ccc(O)cc3)C(=O)N2[C@H]1C(=O)O [AMO, amoxicillin] | 5.00 × 10^4 | 3000 ± 500 | 4300 ± 445 | 6670 ± 610 | 1170 ± 76 | 500 ± 50 | 370 ± 10 | 3.40 × 10^3 | 2.00 × 10^4 | – | – | –
2 | 3.6 (≈ 10.3 µM) | CC1(C)S[C@@H]2[C@H](NC(=O)[C@H](N)c3ccccc3)C(=O)N2[C@H]1C(=O)O [AMP, ampicillin] | 5.58 × 10^6 | 3670 ± 350 | 4700 ± 409 | 4330 ± 260 | – | 967 ± 76 | 230 ± 15 | 6.30 × 10^4 | 3.29 × 10^6 | – | – | –
3 | 1 (≈ 1.34 µM) | CC[C@H]1OC(=O)[C@H](C)[C@@H](O[C@H]2C[C@@](C)(OC)[C@@H](O)[C@H](C)O2)[C@H](C)[C@@H](O[C@@H]2O[C@H](C)C[C@H](N(C)C)[C@H]2O)[C@](C)(OC)C[C@@H](C)C(=O)[C@H](C)[C@@H](O)[C@]1(C)O [CAM, clarithromycin] | – | – | – | – | – | – | – | – | – | 3.45 × 10^5 | 5.10 × 10^4 | 3.27 × 10^5
4 | 1 (≈ 1.36 µM) | CC[C@H]1OC(=O)[C@H](C)[C@@H](O[C@H]2C[C@@](C)(OC)[C@@H](O)[C@H](C)O2)[C@H](C)[C@@H](O[C@@H]2O[C@H](C)C[C@H](N(C)C)[C@H]2O)[C@](C)(O)C[C@@H](C)C(=O)[C@H](C)[C@@H](O)[C@]1(C)O [Eryc, erythromycin] | 3.16 × 10^5 | – | – | – | – | – | – | 5.07 × 10^4 | 3.18 × 10^5 | – | – | –
